Patent US10519140B2, “Indolin-2-one derivatives” (Hoffmann-La Roche Inc., priority 2015, dated 2019)
pIC50: −log10 of the molar value.

Target: T1, mouse ENT-1 transporter (Mus musculus, UniProt Q9JIM1)
T1 construct: expressed in transfected cells
T1 sequence (Q9JIM1 1-460): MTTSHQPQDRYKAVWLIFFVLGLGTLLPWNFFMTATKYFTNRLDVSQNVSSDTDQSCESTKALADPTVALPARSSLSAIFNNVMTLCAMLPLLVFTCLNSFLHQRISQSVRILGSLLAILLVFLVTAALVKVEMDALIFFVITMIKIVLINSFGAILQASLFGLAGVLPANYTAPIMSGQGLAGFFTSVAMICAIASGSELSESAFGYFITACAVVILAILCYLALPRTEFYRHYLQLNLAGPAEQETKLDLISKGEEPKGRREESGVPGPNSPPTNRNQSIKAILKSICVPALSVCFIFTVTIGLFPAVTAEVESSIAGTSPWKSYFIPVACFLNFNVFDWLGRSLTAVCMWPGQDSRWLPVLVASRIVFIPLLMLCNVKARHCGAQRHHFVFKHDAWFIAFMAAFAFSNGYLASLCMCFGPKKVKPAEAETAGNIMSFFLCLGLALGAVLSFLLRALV
Experiment: Adenosine transport activity (ENT1, [3H]-adenosine uptake inhibition)
Format: cell-based
Conditions: stable cells expressing mouse ENT-1; [2,8-3H]-adenosine 6 nM, 20 min
Procedure: To measure adenosine transport activity of ENT-1 mammalian cells, stable cells expressing the mouse ENT-1 transporter were plated on day 1 in 96-well culture plates at the density of 60,000 cells/well, in complete DMEM/F12 medium supplemented with glutamax, 10% FBS and 10 μg/ml puromycin. On day 2, the medium was aspirated and the cells were washed twice with uptake buffer (10 mM Hepes-Tris, pH 7.4 containing 150 mM NaCl, 1 mM CaCl2, 2.5 mM KCl, 2.5 mM MgSO4, 10 mM D-glucose) (UB). For inhibition experiments, cells were then incubated at RT with various concentrations of compounds with 1% DMSO final. Non-specific uptake was defined in the presence of 10 μM S-(4-Nitrobenzyl)-6-thioinosine (NBTI, Sigma Cat #N2255). A solution containing [2,8-^3H]-adenosine 6 nM (40 Ci/mmol, American Radiolabeled chemicals Inc, Cat #ART 0287A) was then immediately added to the wells. The plates were then incubated for 20 min with gentle shaking and the reaction was stopped by aspiration of the mixture and washing (three times) with ice-cold UB. The cells were lysed by the addition of scintillation liquid, shaken 3 hours and the radioactivity in the cells was estimated using a microplates scintillation counter (TopCount NXT, Packard).

Row | Structure (SMILES) | pIC50
1 | Cc1ncc(-c2ccc3c(c2)N(c2cnc4[nH]c(=O)[nH]c4n2)C(=O)C3(C)C)cn1 [Example 36, 5-(3,3-Dimethyl-6-(2-methylpyrimidin-5-yl)-2-oxoindolin-1-yl)-1H-imidazo[4,5-b]pyrazin-2(3H)-one] | 6.43
2 | Cc1ncc(-c2ccc3c(c2)N(c2cc4c(cn2)C(C)(C)C(=O)N4C2CC2)C(=O)C3(C)C)cn1 [Example 40, 1-Cyclopropyl-6-(3,3-dimethyl-6-(2-methylpyrimidin-5-yl)-2-oxoindolin-1-yl)-3,3-dimethyl-1H-pyrrolo [3,2-c]pyridin-2(3H)-one] | 6.31
3 | Cc1ncc(-c2ccc3c(c2)N(c2cc4c(cn2)C(C)(C)C(=O)N4)C(=O)C3(C)C)cn1 [Example 43, 6-(3,3-Dimethyl-6-(2-methylpyrimidin-5-yl)-2-oxoindolin-1-yl)-3,3-dimethyl-1H-pyrrolo[3,2-c]pyridin-2(3H)-one] | 6.41
4 | Cc1ncc(-c2ccc3c(c2)N(c2ccc4oc(C)nc4n2)C(=O)C3(C)C)cn1 [Example 45, 3,3-Dimethyl-1-(2-methyloxazolo[4,5-b]pyridin-5-yl)-6-(2-methylpyrimidin-5-yl)indolin-2-one] | 6.23
5 | Cc1ncc(-c2ccc3c(c2)N(c2ccc4c(c2F)N(C)C(=O)C4(C)C)C(=O)C3(C)C)cn1 [Example 46, 7′-Fluoro-1′,3,3,3′,3′-pentamethyl-6-(2-methylpyrimidin-5-yl)-[1,6′-biindoline]-2,2′-dione] | 6.61
6 | Cc1ncc(-c2ccc3c(c2)N(c2cnc(N4CCOCC4)cn2)C(=O)C3(C)C)cn1 [Example 49, 3,3-Dimethyl-6-(2-methylpyrimidin-5-yl)-1-(5-morpholinopyrazin-2-yl)indolin-2-one] | 6.38
7 | Cc1ncc(-c2ccc3c(c2)N(c2cnc(N4[C@@H]5COC[C@H]4C5)cn2)C(=O)C3(C)C)cn1 [Example 51, 1-(5-((1R,5S)-3-Oxa-6-azabicyclo[3.1.1]heptan-6-yl)pyrazin-2-yl)-3,3-dimethyl-6-(2-methylpyrimidin-5-yl)indolin-2-one] | 6.64
8 | Cc1ncc(-c2ccc3c(c2)N(c2cnc(NCCO)cn2)C(=O)C3(C)C)cn1 [Example 52, 1-(5-((2-Hydroxyethyl)amino)pyrazin-2-yl)-3,3-dimethyl-6-(2-methylpyrimidin-5-yl)indolin-2-one] | 6.62
9 | Cc1ncc(-c2ccc3c(c2)N(c2cc4c(nn2)N(C2CC2)C(=O)C4(C)C)C(=O)C3(C)C)cn1 [Example 53, 7-Cyclopropyl-3-(3,3-dimethyl-6-(2-methylpyrimidin-5-yl)-2-oxoindolin-1-yl)-5,5-dimethyl-5H-pyrrolo[2,3-c]pyridazin-6(7H)-one] | 6.00
10 | Cc1ncc(-c2ccc3c(c2)N(c2cncc(N4CC(C)(C)OC4=O)n2)C(=O)C3(C)C)cn1 [Example 56, 3-(6-(3,3-Dimethyl-6-(2-methylpyrimidin-5-yl)-2-oxoindolin-1-yl)pyrazin-2-yl)-5,5-dimethyloxazolidin-2-one] | 6.69
11 | Cc1ncc(-c2ccc3c(c2)N(c2ccc4cc[nH]c4n2)C(=O)C3(C)C)cn1 [Example 58, 3,3-Dimethyl-6-(2-methylpyrimidin-5-yl)-1-(1H-pyrrolo [2,3-b]pyridin-6-yl)indolin-2-one] | 6.61
12 | Cc1ncc(-c2ccc3c(c2)N(c2ccc4c(c2)N(C2COC2)C(=O)C4(C)C)C(=O)C3(C)C)cn1 [Example 59, 3,3,3′,3′-Tetramethyl-6-(2-methylpyrimidin-5-yl)-1′-(oxetan-3-yl)-[1,6′-biindoline]-2,2′-dione] | 6.69
13 | Cc1ncc(-c2ccc3c(c2)N(c2ccc4c(C)nn(C)c4n2)C(=O)C3(C)C)cn1 [Example 61, 1-(1,3-Dimethyl-1H-pyrazolo[3,4-b]pyridin-6-yl)-3,3-dimethyl-6-(2-methylpyrimidin-5-yl)indolin-2-one] | 6.69
14 | Cc1ncc(-c2ccc3c(c2)N(c2ccc4ccn(C)c4c2)C(=O)C3(C)C)cn1 [Example 62, 3,3-Dimethyl-1-(1-methyl-1H-indol-6-yl)-6-(2-methylpyrimidin-5-yl)indolin-2-one] | 6.37

Stronger by pIC50, values ahead:

Row | pIC50 | Structure (SMILES)
15 | 6.71 | COc1ccc(CN2C(=O)C(C)(C)c3ccc(N4C(=O)C(C)(C)c5ccc(-c6cnc(C)nc6)cc54)cc32)cc1 [Example 42, 1′-(4-Methoxybenzyl)-3,3,3′,3′-tetramethyl-6-(2-methylpyrimidin-5-yl)-[1,6′-biindoline]-2,2′-dione]
16 | 6.73 | Cc1ncc(-c2ccc3c(c2)N(c2ccc4nnn(C)c4c2)C(=O)C3(C)C)cn1 [Example 48, 3,3-Dimethyl-1-(1-methyl-1H-benzo[d][1,2,3]triazol-6-yl)-6-(2-methylpyrimidin-5-yl)indolin-2-one]
17 | 6.89 | Cc1ncc(-c2ccc3c(c2)N(c2ccc4c(c2)NC(=O)C4(C)C)C(=O)C3(C)C)cn1 [Example 44, 3,3,3′,3′-Tetramethyl-6-(2-methylpyrimidin-5-yl)-[1,6′-biindoline]-2,2′-dione]
18 | 6.94 | Cc1ncc(-c2ccc3c(c2)N(c2ccc4c(c2)N(C)C(=O)C4(C)C)C(=O)C3(C)C)cn1 [Example 41, 1′,3,3,3′,3′-Pentamethyl-6-(2-methylpyrimidin-5-yl)-[1,6′-biindoline]-2,2′-dione]
19 | 7.21 | Cc1ncc(-c2ccc3c(c2)N(c2cnc4c(c2)NC(=O)CO4)C(=O)C3(C)C)cn1 [Example 38, 7-(3,3-Dimethyl-6-(2-methylpyrimidin-5-yl)-2-oxoindolin-1-yl)-1H-pyrido[2,3-b][1,4]oxazin-2(3H)-one]
20 | 7.22 | Cc1ncc(-c2ccc3c(c2)N(c2cncc(N4CCCS4(=O)=O)n2)C(=O)C3(C)C)cn1 [Example 57, 1-(6-(1,1-Dioxidoisothiazolidin-2-yl)pyrazin-2-yl)-3,3-dimethyl-6-(2-methylpyrimidin-5-yl)indolin-2-one]
21 | 7.42 | Cc1ncc(-c2ccc3c(c2)N(c2ccc4cnn(C)c4c2)C(=O)C3(C)C)cn1 [Example 60, 3,3-Dimethyl-1-(1-methyl-1H-indazol-6-yl)-6-(2-methylpyrimidin-5-yl)indolin-2-one]
22 | 7.85 | Cc1ncc(-c2ccc3c(c2)N(c2ccc4c(c2)N(C)C(=O)CO4)C(=O)C3(C)C)cn1 [Example 47, 6-(3,3-Dimethyl-6-(2-methylpyrimidin-5-yl)-2-oxoindolin-1-yl)-4-methyl-2H-benzo[b][1,4]oxazin-3(4H)-one]
23 | 8.17 | Cc1ncc(-c2ccc3c(c2)N(c2ccc4c(n2)NC(=O)C4(C)C)C(=O)C3(C)C)cn1 [Example 37, 6-(3,3-Dimethyl-6-(2-methylpyrimidin-5-yl)-2-oxoindolin-1-yl)-3,3-dimethyl-1H-pyrrolo[2,3-b]pyridin-2(3H)-one]

Test system: L-687,414-induced hyperlocomotion
Experiment: L-687,414-induced hyperlocomotion
Format: in vivo
Conditions: Mus musculus; mice; dose 30 mg/kg ip, 15 min before 50 mg/kg s.c. L-687,414
Source text: The authors described that hyperlocomotion induced by L-687,414 was inhibited by a series of known antipsychotic drugs. […] These findings predict antipsychotic activity for the present compounds, making them useful for the treatment of positive (psychosis) and negative symptoms of schizophrenia, substance abuse, alcohol and drug addiction, obsessive-compulsive disorders, cognitive impairment, bipolar disorders, mood disorders, major depression, resistant depression, anxiety disorders, Alzheimer's disease, autism, Parkinson's disease, chronic pain, borderline personality disorder, sleep disturbances, chronic fatigue syndrome, stiffness, antiinflammatory effects in arthritis and balance problems, and treatment of epilepsy and neurodevelopmental disorders with co-morbid epilepsy.
The described compounds of formula I reduce L-687,414-induced hyperlocomotion. This was assessed by using a computerized Digiscan 16 Animal Activity Monitoring System (Omnitech Electronics, Columbus, Ohio) to quantify locomotor activity. Animals were kept under a 12 h light/dark cycle and experiments were performed during the light period. Each activity monitoring chamber consisted of a Plexiglas box (41×41×28 cm; W×L×H) with sawdust bedding on the floor surrounded by invisible horizontal and vertical infrared sensor beams. The test boxes were divided by a Plexiglas cross providing each mouse with 20×20 cm of moving space. Cages were connected to a Digiscan Analyzer linked to a computer that constantly collected the beam status information. Records of photocell beam interruptions for individual animals were taken every 5 min over the duration of the experimental session and the sum of the first 6 periods was used as the final parameter. At least 8 mice were used in each treatment group. Compounds were administered i.p. 15 min before a s.c. injection of 50 mg/kg of L-687,414. Mice were then transferred from their home cage to the recording chambers for a 15-min habituation phase allowing free exploration of the new environment. Horizontal activity was then recorded for a 30-min time period. The % inhibition of L-687,414-induced hyperlocomotion was calculated according to the equation: ((Veh+L-687,414 horizontal activity−drug+L-687,414 horizontal activity)/Veh+L−687,414 horizontal activity)×100
ID50 values, defined as doses of each compound producing 50% inhibition of L-687,414-induced hyperlocomotion, were calculated by linear regression analysis of a dose-response data using an Excel-based computer-fitting program.
As data was not presupposed to be normally distributed, groups treated with test compounds were statistically compared with the control (vehicle-treated) group using one-tailed Mann Whitney U tests. In statistics, the Mann-Whitney Utest (also called the Mann-Whitney-Wilcoxon (MWW) or Wilcoxon rank-sum test) is a non-parametric statistical hypothesis test for assessing whether one of two samples of independent observations tends to have larger values than the other. It is one of the most well-known non-parametric significance tests. […] P values given in table 1 are one-tailed since only decreases in locomotion were expected and tested for (Mann, H. B., Whitney, D. R. (1947), “On a Test of Whether one of Two Random Variables is Stochastically Larger than the Other”, Annals of Mathematical Statistics, 18 (1), 50-60).

Row | Structure (SMILES) | inhibition in vivo at 30 mg/kg
24 | Cc1ncc(-c2ccc3c(c2)N(c2ccc4c(c2)N(C)C(=O)CO4)C(=O)C3(C)C)cn1 [Example 47, 6-(3,3-Dimethyl-6-(2-methylpyrimidin-5-yl)-2-oxoindolin-1-yl)-4-methyl-2H-benzo[b][1,4]oxazin-3(4H)-one] | 93.8%
